Test results from patent US20250320184A1 (SIRONAX LTD., priority 2022, published 2025).

biological target: T1, SARM1 (50-724) (Homo sapiens, UniProt Q6SZW1); experiment: biochemical
T1 sequence (Q6SZW1 50-724): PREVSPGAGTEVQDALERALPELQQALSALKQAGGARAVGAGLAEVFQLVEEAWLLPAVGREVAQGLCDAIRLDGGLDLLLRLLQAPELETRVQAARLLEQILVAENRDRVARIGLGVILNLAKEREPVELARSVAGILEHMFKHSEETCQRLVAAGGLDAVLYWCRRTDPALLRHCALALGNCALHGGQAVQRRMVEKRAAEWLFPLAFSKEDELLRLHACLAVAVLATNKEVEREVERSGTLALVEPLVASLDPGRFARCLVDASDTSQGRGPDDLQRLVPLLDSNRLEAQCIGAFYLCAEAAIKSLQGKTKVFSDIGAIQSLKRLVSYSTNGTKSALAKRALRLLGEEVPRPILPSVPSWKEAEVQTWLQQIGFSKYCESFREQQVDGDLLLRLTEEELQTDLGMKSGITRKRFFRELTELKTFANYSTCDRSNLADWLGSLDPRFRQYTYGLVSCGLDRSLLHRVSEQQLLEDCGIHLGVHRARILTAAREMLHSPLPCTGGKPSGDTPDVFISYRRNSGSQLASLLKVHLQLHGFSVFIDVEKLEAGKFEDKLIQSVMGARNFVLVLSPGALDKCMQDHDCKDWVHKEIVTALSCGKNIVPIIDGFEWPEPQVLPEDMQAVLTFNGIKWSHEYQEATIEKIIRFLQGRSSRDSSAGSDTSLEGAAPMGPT
Method: An enzymatic assay was performed in a 384-well plate using Dulbecco's phosphate-buffered saline (PBS) as the reaction buffer. […] The reaction was initiated by adding a mixture of 200 μM nicotinamide mononucleotide (NMN) as activator and 100 μM NAD^+ as substrate. After 1 h of incubation at room temperature, the reaction was terminated with 10 times volume of 70% acetonitrile, then centrifuged at 3800 rpm for 10 min.

| IC50 [nM] | Compound |
| --- | --- |
| < 100 | O=C1NCCCc2ccc(NS(=O)(=O)c3cccc(Cl)c3Cl)cc21 [Compound 41, 2,3-dichloro-N-(1-oxo-2,3,4,5-tetrahydro-1H-benzo[c]azepin-8-yl)benzenesulfonamide] |
| < 100 | O=S(=O)(Nc1ccc2cccnc2c1)c1cccc(Cl)c1Cl [Compound 42, 2,3-dichloro-N-(quinolin-7-yl)benzenesulfonamide] |
| 100 to 500 | O=S(=O)(Nc1ccc2ccncc2c1)c1cccc(Cl)c1Cl [Compound 43, 2,3-dichloro-N-(isoquinolin-7-yl)benzenesulfonamide] |
| 100 to 500 | O=S(=O)(Nc1ccc2ccccc2c1)c1cccc(Cl)c1Cl [Compound 44, 2,3-dichloro-N-(naphthalen-2-yl)benzenesulfonamide] |
| < 100 | Cc1c(Cl)cc(F)cc1S(=O)(=O)Nc1ccc2cc[nH]c(=O)c2c1 [Compound 45, 3-chloro-5-fluoro-2-methyl-N-(1-oxo-1,2-dihydroisoquinolin-7-yl)benzenesulfonamide] |
| > 1000 | Cc1c(F)cccc1S(=O)(=O)Nc1cccc(N2CCNC2=O)c1 [Compound 46, 3-fluoro-2-methyl-N-(3-(2-oxoimidazolidin-1-yl)phenyl)benzenesulfonamide] |
| > 1000 | O=C1NCCc2cc(Cl)c(NS(=O)(=O)c3cccc(Cl)c3Cl)cc21 [Compound 47, 2,3-dichloro-N-(6-chloro-1-oxo-1,2,3,4-tetrahydroisoquinolin-7-yl)benzenesulfonamide] |
| > 1000 | O=C1NCCc2ccc(NS(=O)(=O)N3CC4CCCC4C3)cc21 (stereo not shown) [Compound 49, N-(1-oxo-3,4-dihydro-2H-isoquinolin-7-yl)-3,3a,4,5,6,6a-hexahydro-1H-cyclopenta[c]pyrrole-2-sulfonamide] |
| 100 to 500 | Cc1cccc(S(=O)(=O)Nc2ccc3c(c2)C(=O)NCC3)c1C [Compound 50, 2,3-dimethyl-N-(1-oxo-1,2,3,4-tetrahydroisoquinolin-7-yl)benzenesulfonamide] |
| > 1000 | O=C1NCCc2ccc(NS(=O)(=O)c3cc(F)cc(F)c3F)cc21 [Compound 51, 2,3,5-trifluoro-N-(1-oxo-3,4-dihydro-2H-isoquinolin-7-yl)benzenesulfonamide] |
| 100 to 500 | Cn1ncc2ccc(NS(=O)(=O)c3cccc(Cl)c3Cl)cc21 [Compound 52, 2,3-dichloro-N-(1-methyl-1H-indazol-6-yl)benzenesulfonamide] |
| 100 to 500 | O=C1NCCc2ccc(NS(=O)(=O)c3cccc(F)c3Cl)cc21 [Compound 53, 2-chloro-3-fluoro-N-(1-oxo-1,2,3,4-tetrahydroisoquinolin-7-yl)benzenesulfonamide] |
| > 1000 | O=C1NCCc2ccc(NS(=O)(=O)c3cccc(F)c3F)cc21 [Compound 54, 2,3-difluoro-N-(1-oxo-1,2,3,4-tetrahydroisoquinolin-7-yl)benzenesulfonamide] |
| < 100 | O=C1CCCc2ccc(NS(=O)(=O)c3cccc(Cl)c3Cl)cc21 [Compound 55, 2,3-dichloro-N-(8-oxo-5,6,7,8-tetrahydronaphthalen-2-yl)benzenesulfonamide] |
| 100 to 500 | O=c1[nH]cc(Br)c2ccc(NS(=O)(=O)c3cccc(Cl)c3Cl)cc12 [Compound 57, N-(4-bromo-1-oxo-1,2-dihydroisoquinolin-7-yl)-2,3-dichlorobenzenesulfonamide] |
| < 100 | Cc1n[nH]c2cc(NS(=O)(=O)c3cccc(Cl)c3Cl)ccc12 [Compound 58, 2,3-dichloro-N-(3-methyl-1H-indazol-6-yl)benzenesulfonamide] |
| 100 to 500 | O=S(=O)(Nc1ccc2csnc2c1)c1cccc(Cl)c1Cl [Compound 59, N-(benzo[c]isothiazol-6-yl)-2,3-dichlorobenzenesulfonamide] |
| > 1000 | O=S(=O)(Nc1ccc2ccccc2n1)c1cccc(Cl)c1Cl [Compound 60, 2,3-dichloro-N-(quinolin-2-yl)benzenesulfonamide] |
| > 1000 | Cc1cccc(F)c1S(=O)(=O)Nc1ccc2c(c1)C(=O)NCC2 [Compound 61, 2-fluoro-6-methyl-N-(1-oxo-1,2,3,4-tetrahydroisoquinolin-7-yl)benzenesulfonamide] |
| < 100 | O=c1[nH]cc(F)c2ccc(NS(=O)(=O)c3cccc(Cl)c3Cl)cc12 [Compound 62, 2,3-dichloro-N-(4-fluoro-1-oxo-1,2-dihydroisoquinolin-7-yl)benzenesulfonamide] |
| 100 to 500 | N#Cc1c[nH]c(=O)c2cc(NS(=O)(=O)c3cccc(Cl)c3Cl)ccc12 [Compound 63, 2,3-dichloro-N-(4-cyano-1-oxo-1,2-dihydroisoquinolin-7-yl)benzenesulfonamide] |
| 100 to 500 | O=S(=O)(Nc1cccc(-c2ncco2)c1)c1cccc(Cl)c1Cl [Compound 64, 2,3-dichloro-N-(3-oxazol-2-ylphenyl)benzenesulfonamide] |

| IC50 [nM] | Compound |
| --- | --- |
| > 1000 | CC(C)c1c[nH]c(=O)c2cc(NS(=O)(=O)c3cccc(Cl)c3Cl)ccc12 [Compound 66, 2,3-dichloro-N-(4-isopropyl-1-oxo-1,2-dihydroisoquinolin-7-yl)benzenesulfonamide] |
| 100 to 500 | COC(=O)Cc1ccc(NS(=O)(=O)c2cccc(Cl)c2Cl)cc1 [Compound 67] |
| < 100 | O=c1[nH]ccc2ccc(NS(=O)(=O)c3c(Cl)ccc(Cl)c3Cl)cc12 [Compound 68, 2,3,6-trichloro-N-(1-oxo-1,2-dihydroisoquinolin-7-yl)benzenesulfonamide] |
| < 100 | O=c1[nH]ccc2ccc(NS(=O)(=O)c3ccc(F)c(Cl)c3Cl)cc12 [Compound 69, 2,3-dichloro-4-fluoro-N-(1-oxo-1,2-dihydroisoquinolin-7-yl)benzenesulfonamide] |
| < 100 | O=c1[nH]ccc2ccc(NS(=O)(=O)c3c(F)ccc(Cl)c3Cl)cc12 [Compound 70, 2,3-dichloro-6-fluoro-N-(1-oxo-1,2-dihydroisoquinolin-7-yl)benzenesulfonamide] |
| 100 to 500 | Cc1ccc2ccc(NS(=O)(=O)c3cccc(Cl)c3Cl)cc2n1 [Compound 71, 2,3-dichloro-N-(2-methylquinolin-7-yl)benzenesulfonamide] |
| < 100 | Cc1c2ccc(NS(=O)(=O)c3cccc(Cl)c3Cl)cc2nn1C [Compound 72, 2,3-dichloro-N-(2,3-dimethyl-2H-indazol-6-yl)benzenesulfonamide] |
| < 100 | Cc1n[nH]c2cc(NS(=O)(=O)c3cccc(Cl)c3Cl)cc(F)c12 [Compound 73, 2,3-dichloro-N-(4-fluoro-3-methyl-1H-indazol-6-yl)benzenesulfonamide] |
| 100 to 500 | O=S(=O)(Nc1cc(F)c2cn[nH]c2c1)c1cccc(Cl)c1Cl [Compound 74, 2,3-dichloro-N-(4-fluoro-1H-indazol-6-yl)benzenesulfonamide] |
| < 100 | O=S(=O)(Nc1ccc2c(F)n[nH]c2c1)c1cccc(Cl)c1Cl [Compound 75, 2,3-dichloro-N-(3-fluoro-1H-indazol-6-yl)benzenesulfonamide] |
| 100 to 500 | O=S(=O)(Nc1cc2ccccc2cn1)c1cccc(Cl)c1Cl [Compound 76, 2,3-dichloro-N-(isoquinolin-3-yl)benzenesulfonamide] |
| 100 to 500 | Cn1cnc2cc(NS(=O)(=O)c3cccc(Cl)c3Cl)ccc21 [Compound 77, 2,3-dichloro-N-(1-methyl-1H-benzo[d]imidazol-5-yl)benzenesulfonamide] |
| < 100 | O=S(=O)(Nc1ccc2c(Cl)n[nH]c2c1)c1cccc(Cl)c1Cl [Compound 78, 2,3-dichloro-N-(3-chloro-1H-indazol-6-yl)benzenesulfonamide] |
| 100 to 500 | Cn1ncc2cc(NS(=O)(=O)c3cccc(Cl)c3Cl)ccc21 [Compound 79, 2,3-dichloro-N-(1-methyl-1H-indazol-5-yl)benzenesulfonamide] |
| 100 to 500 | N#CCn1ccc2ccc(NS(=O)(=O)c3cccc(Cl)c3Cl)cc2c1=O [Compound 80, 2,3-dichloro-N-(2-(cyanomethyl)-1-oxo-1,2-dihydroisoquinolin-7-yl)benzenesulfonamide] |
| < 100 | Cc1n[nH]c2cc(NS(=O)(=O)c3c(Cl)ccc(Cl)c3Cl)ccc12 [Compound 81, 2,3,6-trichloro-N-(3-methyl-1H-indazol-6-yl)benzenesulfonamide] |
| < 100 | O=c1[nH]cnc2ccc(NS(=O)(=O)c3c(Cl)ccc(Cl)c3Cl)cc12 [Compound 82, 2,3,6-trichloro-N-(4-oxo-3H-quinazolin-6-yl)benzenesulfonamide] |
| 100 to 500 | O=S(=O)(Nc1cccc(-c2cnccn2)c1)c1cccc(Cl)c1Cl [Compound 83, 2,3-dichloro-N-(3-pyrazin-2-ylphenyl)benzenesulfonamide] |
| < 100 | O=C1CCCc2ccc(NS(=O)(=O)c3cccc(Cl)c3Cl)cc2N1 [Compound 84, 2,3-dichloro-N-(2-oxo-2,3,4,5-tetrahydro-1H-benzo[b]azepin-8-yl)benzenesulfonamide] |
| 100 to 500 | N#Cc1cccc2ccc(NS(=O)(=O)c3cccc(Cl)c3Cl)cc12 [Compound 85, 2,3-dichloro-N-(8-cyanonaphthalen-2-yl)benzenesulfonamide] |
| 100 to 500 | COc1ccc(NS(=O)(=O)c2cccc(Cl)c2Cl)cc1C(N)=O [Compound 86, 5-((2,3-dichlorophenyl)sulfonamido)-2-methoxybenzamide] |
